# Measurements as given in patent publication US6406900B1, “Flea protease proteins, nucleic acid molecules and uses thereof” (Heska Corporation, priority 1991, dated 2002).
# System: flea serine proteases
# Assay: in vitro inhibition of flea protease activity
# Assay type: biochemical
# From the text: In one embodiment, a protease inhibitor that can be used in a composition of the present invention to treat an animal is identified by a method including the following steps: (a) identifying candidate (i.e., putative, possible) inhibitor compounds by testing the efficacy of one or more protease inhibitors (i) in vitro for their ability to inhibit flea protease activity and/or (ii) in a flea feeding assay for their ability to reduce the survival and/or fecundity of fleas by adding the inhibitors to the blood meal of a flea being maintained, for example, in a feeding system, such as that described by Wade et al., 1988, J. Med Entomol. 25, 186-190; and (b) testing the efficacy of the candidate inhibitor compounds in animals infested with fleas. […] Furthermore, candidate inhibitor compounds identified by the flea feeding assays can include not only desired compounds but also compounds that reduce the viability and/or fecundity of fleas due to general toxicity (e.g., affecting the mitochondria of fleas).
substance,measurement,setting,value
aprotinin,inhibition of flea serine proteases in the presence of serum proteins,"in the presence of serum proteins, such as are found in the blood",does not work well
same,inhibition of flea serine proteases,in vitro,can inhibit at least some flea serine proteases in vitro
